From patent US11740249B2, “Recognition of cellular target binding by a bioactive agent using intracellular bioluminescence resonance energy transfer” (Promega Corporation, priority 2012, dated 2023)

Legend:
[1] = target: T1, NANOLUC-HDAC6 fusion protein (Homo sapiens, UniProt Q9UBN7); assay: Intracellular BRET tracer binding, NANOLUC-HDAC6 in HEK293 cells (Example 1); conditions: live HEK293 cells, compared to SAHA-TMR (PBI-4967)
T1 construct: expressed in transfected cells; host or cells: HEK293
Method: In this example, conjugates of suberoylanilide hydroxamic acid (SAHA), an inhibitor of histone deacetylase 6 (HDAC6), and a PBI dye (SAHA-TOM (PBI-4968); See FIGS. 8A-B) or standard dye (SAHA-TAMRA (PBI-4967); See FIGS. 8A-B) were utilized in an intracellular BRET assay using a NANOLUC-HDAC fusion protein (SEQ ID NO: 3).
HEK293 cells were transfected using FuGene HD (Promega Corp.) with plasmid DNA encoding a NANOLUC-HDAC6 fusion protein. NANOLUC-HDAC6 DNA was diluted 1:1000 with a promoterless carrier DNA (pGEM3Z) to yield a final concentration of 50 ng/well total DNA in 96-well plate format (at a seeding density of 20,000 cells/well). Twenty-four hours post-transfection, cells were then incubated with serially-diluted tracer in the presence or absence of a molar excess of unlabeled SAHA (as a specificity control). Following equilibration with the drug tracers, furimazine (a coelenterazine derivative substrate for NANOLUC; Promega Corp.) was added at a concentration of 20 uM, and BRET was quantified on a Varioskan luminometer. The specific BRET signal was calculated by subtracting the non-specific signal (in the presence of unlabeled SAHA) from the signal generated from the SAHA tracer alone.

[2] = target: T2, NANOLUC-HDAC6 (Homo sapiens, UniProt Q9UBN7); assay: BRET compound panel screen by competitive displacement of SAHA-TOM, NANOLUC-HDAC6 in HEK293 cells (Example 15); type: binding; conditions: 1 uM SAHA-TOM (PBI-4968), 2 h
T2 construct: expressed in transfected cells; host or cells: HEK293
T2 sequence (Q9UBN7 with tags, fused parts or gaps): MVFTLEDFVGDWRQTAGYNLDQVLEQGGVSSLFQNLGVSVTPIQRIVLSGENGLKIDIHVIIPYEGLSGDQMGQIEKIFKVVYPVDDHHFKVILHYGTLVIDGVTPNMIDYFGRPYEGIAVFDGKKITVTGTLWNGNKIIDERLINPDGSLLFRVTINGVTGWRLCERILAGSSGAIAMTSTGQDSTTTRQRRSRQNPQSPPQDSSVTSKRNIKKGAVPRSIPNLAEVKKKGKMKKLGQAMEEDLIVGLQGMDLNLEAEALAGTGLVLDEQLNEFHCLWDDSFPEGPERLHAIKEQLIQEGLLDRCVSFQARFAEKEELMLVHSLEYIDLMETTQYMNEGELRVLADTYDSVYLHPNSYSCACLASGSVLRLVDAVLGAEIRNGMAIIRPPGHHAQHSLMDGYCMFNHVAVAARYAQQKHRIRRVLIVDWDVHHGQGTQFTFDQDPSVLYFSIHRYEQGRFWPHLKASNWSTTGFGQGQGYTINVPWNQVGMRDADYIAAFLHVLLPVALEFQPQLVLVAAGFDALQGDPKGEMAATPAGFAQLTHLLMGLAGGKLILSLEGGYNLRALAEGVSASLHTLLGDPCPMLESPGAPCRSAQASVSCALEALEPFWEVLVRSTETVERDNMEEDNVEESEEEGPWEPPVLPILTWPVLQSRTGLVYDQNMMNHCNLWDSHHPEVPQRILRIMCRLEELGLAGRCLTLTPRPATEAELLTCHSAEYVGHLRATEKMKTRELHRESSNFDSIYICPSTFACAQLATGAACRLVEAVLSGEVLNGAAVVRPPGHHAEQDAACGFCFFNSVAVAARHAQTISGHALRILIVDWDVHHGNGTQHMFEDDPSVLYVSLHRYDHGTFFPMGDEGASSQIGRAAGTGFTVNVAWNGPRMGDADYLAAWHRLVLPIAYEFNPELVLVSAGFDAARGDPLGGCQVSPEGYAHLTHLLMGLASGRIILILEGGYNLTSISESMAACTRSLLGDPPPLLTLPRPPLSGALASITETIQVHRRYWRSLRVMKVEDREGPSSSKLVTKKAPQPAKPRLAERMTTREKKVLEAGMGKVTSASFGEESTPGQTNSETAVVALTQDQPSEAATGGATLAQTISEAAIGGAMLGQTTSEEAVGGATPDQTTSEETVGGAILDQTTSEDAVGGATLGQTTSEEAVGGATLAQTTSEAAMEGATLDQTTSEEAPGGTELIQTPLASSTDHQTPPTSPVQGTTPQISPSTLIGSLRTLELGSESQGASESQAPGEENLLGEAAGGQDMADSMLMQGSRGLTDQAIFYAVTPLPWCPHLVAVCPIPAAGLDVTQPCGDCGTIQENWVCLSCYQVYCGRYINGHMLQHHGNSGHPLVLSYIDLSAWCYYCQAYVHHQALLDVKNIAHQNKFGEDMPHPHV

T1 sequence (Q9UBN7 with tags, fused parts or gaps): as above

**Q.** What does the source list for O=C(CCCCCCC(=O)Nc1ccc(CNC(=O)c2ccc(C(=O)O)c(C3=c4cc5c6c(c4Oc4c3cc3c7c4CCCN7CCCC3)CCC[N+]=6CCCC5)c2)cc1)NO [PBI-4968]?
**A.** specific BRET signal ([1]; NANOLUC-HDAC6 DNA diluted 1:1000): superior, specific BRET signal; EC50 value for binding within living cells [1]: left-shifted

**Q.** Which “binding efficiency to HDAC6 (competitive displacement of tracer)” value [2] does the source give for O=C(CCCCCCC(=O)Nc1ccccc1)NO [SAHA, suberoylanilide hydroxamic acid] here?
**A.** high binding efficiency
